Tested on: CLP mice
Assay: Survival after cecal ligation and puncture (CLP) model of sepsis
Type: in vivo, mouse
Experimental: A log-rank (Mantel-Cox) p value for trend was calculated.
We used peritonitis induced by CLP as a model of sepsis (Rittirsch et al., 2009). Briefly, animals were anesthetized with ketamine (Imalgene® 1000 100 mg/kg, Merial, France) and Xylazine (Rompun® 2% 20 mg/kg, Bayer, Germany) prior to surgery. After laparotomy, caecum was ligatured at the distal third with a 4.0 suture and the distal part was perforated twice with a 21 Gauge needle.
For use it is dissolved following the guidance provided by the manufacturer.
Clinical score was assessed 6, 12 and 24 hours and 21 days after CLP using a modified SmithKline Beecham, Harwell, Imperial College and Royal London Hospital phenotype assessment (SHIRPA) (Rogers et al., 1997) of the maximum score of fourteen. Weight, temperature and locomotor activity using an open field box were measured at the same time points. We determined survival rate twice a day for 21 days after CLP. The symptoms included in the a modified SmithKline Beecham, Harwell, Imperial College and Royal London Hospital phenotype assessment (SHIRPA) are tremors, periorbital exudates, piloerection, lethargy, vocalisation, positional passivity, no escapement to threat, long transfer arousal and diarrhoea. Each condition was scored from 0 to 2.
Experimental protocols were conducted in accordance with the French and European regulations on Animal Welfare and with Public Health Service recommendations. The experiments were performed on C57BL/6JRj mice (male and female) purchased from Janvier Laboratory. Mice were housed in cages in groups of 7, in a temperature (22±1.5° C.) and humidity-controlled environment, with a 12 h light/dark cycle. All animals used in the study were between 10 and 12 weeks old. Sample-size estimates for animal experiments were based on prior animal-modelling studies used in the Unit for the investigation of caecal ligation and puncture (CLP).
At the end, two groups were compared: CLP-Placebo, CLP-BMX-010. We determined survival rate twice a day for 4 days after CLP.”

With CC[n+]1ccccc1-c1c2nc(c(-c3cccc[n+]3CC)c3ccc([nH]3)c(-c3cccc[n+]3CC)c3nc(c(-c4cccc[n+]4CC)c4ccc1[nH]4)C=C3)C=C2.[Mn+3] [BMX-010, manganese(III) 5,10,15,20-tetrakis(N-ethylpyridinium-2-yl) porphyrin] the “survival of mice hours post-CLP (probability of survival over time) versus placebo” value (CLP experiment, FIG. 10) was “outperforms the placebo” and the “survival at 4 days post-CLP versus placebo” value (CLP mice, 2 mg/kg intra peritoneal every 12 hours during 48 hours (4 injections), N=12 mice C57BL6/group) was “more that doubles survival”.
